In paper PMC9950205, “Efficacy, safety, and pharmacokinetics of teduglutide in adult Japanese patients with short bowel syndrome and intestinal failure: two phase III studies with an extension” (Surgery Today, 2022):

Test system: adult Japanese patients with SBS-IF
Assay: Plasma citrulline, biomarker of intestinal epithelial mass, change from baseline
Format: in vivo, human
Procedure: Concentrations of plasma citrulline, a biomarker of intestinal epithelial mass, were measured at baseline; weeks 4, 8, 16, and 24; and then every 2 months thereafter up to 30 months of treatment. Patients who continued into SHP633-307 from SHP633-306 had measurements taken at month 12, while those continuing from TED-C14-004 had measurements taken every 3 months.
Efficacy endpoints were defined in an analogous manner to previous pivotal studies. These included a clinically meaningful reduction in weekly PS volume of ≥ 20% [17] measured between baseline and both 20 and 24 weeks for TED-C14-004 and SHP633-306, and a continued reduction in weekly PS volume of ≥ 20% from the baseline in core studies at each scheduled visit until the last visit before the interim data cut-off of SHP633-307. Other efficacy endpoints included changes in absolute and percentage weekly PS volumes from the baseline in the core studies at each study visit, the number of days per week of PS, the number of patients who achieved enteral autonomy at the end of treatment or the data cut-off, and the changes in plasma citrulline levels from baseline in the core studies. The primary efficacy data were derived from patient diaries and compared against investigator-prescribed data captured in electronic case report forms.

[1] = 24 weeks, SHP633-306, n = 6, mean ± SD
[2] = 24 weeks, TED-C14-004, n = 9, mean ± SD
[3] = 30 months, TED-C14-004, n = 7, mean ± SD
[4] = interim cut-off of the extension study, patients from SHP633-306, mean ± SD
[5] = interim data cut-off of SHP633-307, patients from TED-C14-004, up to 57 months, n = 7, mean ± SD

For `CC[C@H](C)[C@H](NC(=O)[C@H](Cc1ccccc1)NC(=O)[C@H](CC(=O)O)NC(=O)[C@H](CCCNC(=N)N)NC(=O)[C@H](C)NC(=O)[C@H](C)NC(=O)[C@H](CC(C)C)NC(=O)[C@H](CC(N)=O)NC(=O)[C@H](CC(=O)O)NC(=O)[C@H](CC(C)C)NC(=O)[C@@H](NC(=O)[C@@H](NC(=O)[C@H](CC(N)=O)NC(=O)[C@H](CCSC)NC(=O)[C@H](CCC(=O)O)NC(=O)[C@H](CC(=O)O)NC(=O)[C@H](CO)NC(=O)[C@H](Cc1ccccc1)NC(=O)[C@H](CO)NC(=O)CNC(=O)[C@H](CC(=O)O)NC(=O)CNC(=O)[C@@H](N)Cc1c[nH]cn1)[C@@H](C)O)[C@@H](C)CC)C(=O)N[C@@H](CC(N)=O)C(=O)N[C@@H](Cc1c[nH]c2ccccc12)C(=O)N[C@@H](CC(C)C)C(=O)N[C@H](C(=O)N[C@@H](CCC(N)=O)C(=O)N[C@H](C(=O)N[C@@H](CCCCN)C(=O)N[C@H](C(=O)N[C@H](C(=O)N[C@@H](CC(=O)O)C(=O)O)[C@@H](C)O)[C@@H](C)CC)[C@@H](C)O)[C@@H](C)CC` [teduglutide], the “Plasma citrulline increase from baseline” value [1] was 14.3 ± 10.9 µM, the “Plasma citrulline percent increase from baseline” value [1] was 106.3% ± 114.9% and the “Plasma citrulline increase from baseline” value [2] was 15.0 ± 17.4 µM. For the same compound, the “Plasma citrulline percent increase from baseline” value [2] was 86.9% ± 112.3%, the “Plasma citrulline increase from baseline” value [3] was 28.3 ± 24.1 µM and the “Plasma citrulline percent increase from baseline” value [3] was 135.0% ± 84.2%. For the same compound, the “Plasma citrulline increase from baseline” value [4] was 13.0 ± 5.6 µM, the “Plasma citrulline percent increase from baseline” value [4] was 79.1% ± 33.5% and the “Plasma citrulline increase from baseline” value [5] was 19.2 ± 18.9 µM. For the same compound, the “Plasma citrulline percent increase from baseline” value [5] was 103.6% ± 88.7%.
